pEC50: −log10 of the molar value.
Target: T1, human M4 muscarinic acetylcholine receptor (Homo sapiens, UniProt P08173)
T1 construct: expressed in transfected cells; host or cells: CHO-K1
T1 sequence (P08173 1-479): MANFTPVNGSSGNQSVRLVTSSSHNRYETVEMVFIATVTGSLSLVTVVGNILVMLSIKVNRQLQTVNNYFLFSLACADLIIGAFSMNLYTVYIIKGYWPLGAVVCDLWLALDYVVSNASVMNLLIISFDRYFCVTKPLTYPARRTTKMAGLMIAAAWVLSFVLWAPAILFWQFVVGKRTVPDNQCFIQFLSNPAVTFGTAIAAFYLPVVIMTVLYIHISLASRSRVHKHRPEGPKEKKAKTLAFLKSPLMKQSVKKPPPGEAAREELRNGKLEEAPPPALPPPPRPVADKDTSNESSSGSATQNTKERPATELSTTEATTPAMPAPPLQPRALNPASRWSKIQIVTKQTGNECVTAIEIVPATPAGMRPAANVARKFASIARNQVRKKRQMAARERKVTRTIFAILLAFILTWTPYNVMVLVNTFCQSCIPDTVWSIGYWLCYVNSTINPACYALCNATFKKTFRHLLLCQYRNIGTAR
Assay: human FLIPR-based M4 PAM assay (Ca2+ mobilization, CHO-K1 cells with human M4 receptor and Gαqi5)
Assay type: cell-based
Settings: acetylcholine at 20% of maximum response, read-out: M4 PAM IP
Method in brief: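 Calcium-mobilization (FLIPR) readout in dye-loaded CHO-K1 cells co-expressing human M4 receptor and Gαqi5. Potentiation measured against acetylcholine at a concentration giving 20% of maximal response, with an optional 70% addition; the reported value is the curve inflection point from a 4-parameter logistic fit.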

SMILES	pEC50
Cc1cc2c(nc1N1CCC(Oc3ccc4c(c3)CCOC4)CC1)[C@@H](CO)N(C)C2=O [Example 349A, (S)-7-(hydroxymethyl)-2-(4-(isochroman-6-yloxy)piperidin-1-yl)-3,6-dimethyl-6,7-dihydro-5H-pyrrolo[3,4-b]pyridin-5-one]	7.66
Cc1cc2c(nc1N1CCC(Oc3ccc4c(c3)COCC4)CC1)[C@H](CO)N(C)C2=O [Example 350, (R)-7-(hydroxymethyl)-2-(4-(isochroman-7-yloxy)piperidin-1-yl)-3,6-dimethyl-6,7-dihydro-5H-pyrrolo[3,4-b]pyridin-5-one]	6.01
CCc1cc2c(nc1N1CCC(Oc3ccc4c(c3)COC4)CC1)[C@@H](CO)N(C)C2=O [Example 351, (S)-2-(4-((1,3-dihydro-2-benzofuran-5-yl)oxy)piperidin-1-yl)-3-ethyl-7-(hydroxymethyl)-6-methyl-6,7-dihydro-5H-pyrrolo[3,4-b]pyridin-5-one]	7.40
CCN1C(=O)c2c(nc(N3CCC(Oc4ccc5c(c4)COC5)CC3)c(C)c2C)[C@H]1CO [Example 351A, (S)-2-(4-((1,3-dihydroisobenzofuran-5-yl)oxy)piperidin-1-yl)-6-ethyl-7-(hydroxymethyl)-3,4-dimethyl-6,7-dihydro-5H-pyrrolo[3,4-b]pyridin-5-one]	7.72
CCc1cc2c(nc1N1CCC(Oc3ccc4c(c3)COC4)CC1)[C@H](CO)N(C)C2=O [Example 352, can-2-(4-((1,3-dihydro-2-benzofuran-5-yl)oxy)piperidin-1-yl)-3-ethyl-7-(hydroxymethyl)-6-methyl-6,7-dihydro-5H-pyrrolo[3,4-b]pyridin-5-one]	5.68
Cc1c(N2CCC(Oc3ccc(F)cc3)CC2)nc2c(c1C)C(=O)N(C)[C@@H]2CO [Example 353, (S)-2-(4-(4-fluorophenoxy)piperidin-1-yl)-7-(hydroxymethyl)-3,4,6-trimethyl-6,7-dihydro-5H-pyrrolo[3,4-b]pyridin-5-one]	7.52
Cc1c(N2CCC(Oc3ccc(F)cc3)CC2)nc2c(c1C)C(=O)N(C)[C@H]2CO [Example 354, (R)-2-(4-(4-fluorophenoxy)piperidin-1-yl)-7-(hydroxymethyl)-3,4,6-trimethyl-6,7-dihydro-5H-pyrrolo[3,4-b]pyridin-5-one]	5.83
Cc1cc2c(nc1N1CCC(Oc3ccc4c(c3)OCC4)CC1)[C@@H](CO)N(C)C2=O [Example 355, (S)-2-(4-((2,3-dihydrobenzofuran-6-yl)oxy)piperidin-1-yl)-7-(hydroxymethyl)-3,6-dimethyl-6,7-dihydro-5H-pyrrolo[3,4-b]pyridin-5-one]	7.80
Cc1cc2c(nc1N1CCC(Oc3ccc4c(c3)OCC4)CC1)[C@H](CO)N(C)C2=O [Example 356, (R)-2-(4-((2,3-dihydrobenzofuran-6-yl)oxy)piperidin-1-yl)-7-(hydroxymethyl)-3,6-dimethyl-6,7-dihydro-5H-pyrrolo[3,4-b]pyridin-5-one]	6.10
Cc1cc2c(nc1N1CCC(Oc3cnn(C)c3)CC1)[C@@H](CO)N(C)C2=O [Example 357, (S)-7-(hydroxymethyl)-3,6-dimethyl-2-(4-((1-methyl-1H-pyrazol-4-yl)oxy)piperidin-1-yl)-6,7-dihydro-5H-pyrrolo[3,4-b]pyridin-5-one]	7.06
Cc1cc2c(nc1N1CCC(Oc3cnn(C)c3)CC1)[C@H](CO)N(C)C2=O [Example 358, (R)-7-(hydroxymethyl)-3,6-dimethyl-2-(4-((1-methyl-1H-pyrazol-4-yl)oxy)piperidin-1-yl)-6,7-dihydro-5H-pyrrolo[3,4-b]pyridin-5-one]	5.09
Cc1cc2c(nc1N1CCC(Oc3ccc4c(cnn4C)c3)CC1)[C@@H](CO)N(C)C2=O [Example 359, (S)-7-(hydroxymethyl)-3,6-dimethyl-2-(4-((1-methyl-1H-indazol-5-yl)oxy)piperidin-1-yl)-6,7-dihydro-5H-pyrrolo[3,4-b]pyridin-5-one]	7.43

— patent US10329289B2, “6,7-dihydro-5H-pyrrolo[3,4-B]pyridin-5-one allosteric modulators of the M4 muscarinic acetylcholine receptor” (Merck Sharp & Dohme Corp., priority 2015, dated 2019)
